Source: patent US6600037B1, “4,5-disubstituted-2-aminopyrimidines” (Celltech R & D Limited, priority 1999, dated 2003)

Row | SMILES | melting point
1 | CC(C)(N)c1ccc(-c2nc(Nc3ccc(-n4ccnc4)cc3)ncc2Cl)cc1 [Example 3, 4-[4-(1-Amino-1-methylethyl)phenyl]-5-chloro-N-[4-(1-imidazolyl)phenyl]pyrimidine-2-amine] | 199 to 201 °C
2 | C=CCOC(=O)NC(C)(C)c1ccc(-c2nc(Nc3ccc(CCn4ccnc4)cc3)ncc2Cl)cc1 [Example 5, 4-[4-(1-Allyloxycarbonylamino-1-methylethyl)phenyl]-5-chloro-N-[4-(2-(imidazol-1-yl)ethyl)phenyl]pyrimidine-2-amine] | 72 to 78 °C
3 | C=CCOC(=O)NC(C)(C)c1ccc(-c2nc(Nc3ccc(CCn4ccnc4)cc3)ncc2Cl)cc1F [Example 7, 4-[4-(1-Allyloxycarbonylamino-1-methylethyl)-3-fluorophenyl]-5-chloro-N-[4-(2-(imidazol-1-yl)ethyl)phenyl]pyrimidine-2-amine] | 88 °C
4 | CC(C)(N)c1ccc(-c2nc(Nc3ccc(CCN4CCOCC4)cc3)ncc2Cl)cc1 [Example 9, 4-[4-(1-Amino-1-methylethyl)phenyl]-5-chloro-N-[4-(2-morpholinoethyl)phenyl]pyrimidine-2-amine] | 166 to 173 °C

The next lines start with the values.

Row | melting point | SMILES
5 | 162 to 163 °C | CC(C)(N)c1ccc(-c2nc(Nc3ccc(CCO)cc3)ncc2Cl)cc1 [Example 1, 4-[4-(1-Amino-1-methylethyl)phenyl]-5-chloro-N-[4-(2-hydroxyethyl)phenyl]pyrimidine-2-amine]
6 | 184 to 185 °C | CC(C)(N)c1ccc(-c2nc(Nc3cccc(CCO)c3)ncc2Cl)cc1 [Example 2, 4-[4-(1-Amino-1-methylethyl)phenyl]-5-chloro-N-[3-(2-hydroxyethyl)phenyl]pyrimidine-2-amine]
7 | 172 to 176 °C | CC(C)(N)c1ccc(-c2nc(Nc3ccc(CCO)cc3)ncc2Cl)cc1F [Example 4, 4-[4-(1-Amino-1-methylethyl)-3-fluorophenyl]-5-chloro-N-[4-(2-hydroxyethyl)phenyl]pyrimidine-2-amine]
8 | 112 to 120 °C | CC(C)(N)c1ccc(-c2nc(Nc3ccc(CCn4ccnc4)cc3)ncc2Cl)cc1F [Example 10, 4-[4-(1-Amino-1-methylethyl)-3-fluorophenyl]-5-chloro-N-[4-(2-(imidazol-1-yl)ethyl)phenyl]pyrimidine 2-amine]
